Experimental findings from US7825110B2, “Substituted spiroheterocycles” (Janssen Pharmaceutica NV, priority 2006, dated 2010) are described below.

For assay [1], the target named is T1, human V1a receptor (Homo sapiens, UniProt P37288). Briefly: In-vitro binding assay, 3H-arginine-8-vasopressin, V1a. The conditions noted are these: for IC50: membrane containing human V1a receptor, displacement of H3 vasopressin; for inhibition at 0.2 µM: 0.2 μM test compound, read-out: V1a (binding), Percent inhibition at 0.2 μM. As for the experimental part:
(§1) Assay buffer is 50 mM Tris-Cl, 5 mM MgCl2, 0.1% BSA (pH 7.5) containing 5 μg/ml of aprotinin, leupeptin, pepstatin, 50 μg/ml bacitracin, and 1 mM Pefabloc (4-(2-Aminoethyl)-benzenesulfonyl fluoride, hydrochloride manufactured by Roche Diagnostics Corporation, Indianapolis, Ind. and distributed by Boehringer Mannheim). H3 vasopressin is ^3H-arginine-8-vasopressin (NEN Life Sciences, Boston, Mass.; 68.5 Ci/mmol, final concentration in assay is 0.65-0.75 nM). Into wells of 96-well round bottom polypropylene plates are added buffer, test compound, membrane (containing human V1a or V2 receptor), and H3 vasopressin. The reaction plates are allowed to sit at room temperature for one hour. The samples are filtered through Unifilter GF/C plates (PerkinElmer Life Sciences, Boston, Mass.) presoaked in […]. The plates are washed 5 times with cold physiological saline containing 0.05% Tween 20. After drying, the bottom of the filter plates
(§2) [formula] are sealed and 0.025 ml of Microscint-20 (Packard Instrument Co, Meriden, Conn.) is added to each filter. The top of the plate is sealed, and the plate is counted. Non-specific binding is determined by the addition of 1.25 μM arginine-8-vasopressin in those wells. % Inh. is calculated as follows: […]

Assay [2] concerns the target T2, human V2 receptor (Homo sapiens, UniProt P30518). Briefly: In-vitro binding assay, 3H-arginine-8-vasopressin, V2. The note with it: for inhibition at 0.2 µM: 0.2 μM test compound, read-out: V2 (binding), Percent inhibition at 0.2 μM; for IC50: membrane containing human V2 receptor, displacement of H3 vasopressin. As for the experimental part:
as §1, §2

The target of assay [3] is T1, human V1a receptor. Briefly: V1a vasopressin receptor functional activity (intracellular calcium mobilization, FLIPR, V1a-HEK cells). Format: cell-based. The conditions noted are these: antagonism of vasopressin-induced calcium mobilization in V1a-HEK cells. As for the experimental part: The V1a receptor is a G-protein coupled receptor, which upon activation triggers an increase in intracellular calcium mobilization. To evaluate compounds for their functional V1a receptor activity, HEK-293 cells were transfected with the human V1a receptor (V1a-HEK cells). HEK-293 cells were grown in DMEM (Dulbecco's modified Eagle Media) supplemented with 10% FBS and glutamine. HEK-cells were passed biweekly by trypsinization and seeded into 96 well plates at 33,000 cells per well. HEK-293 cells were transfected with human V1a receptor DNA using DMRIE-C reagent from Life Technologies (Carlsbad, Calif.). Stable lines were generated by selecting cells grown in culture media containing geneticin. After growing in Packard Clear-View black 96 well plates for 4-6 days, V1a-HEK cells were loaded with the calcium-sensitive fluorescence dye, FLUO-3 AM. Changes in intracellular calcium mobilization were measured by quantitating intracellular fluorescence using FLIPR (Fluorometric Imaging Plate Reader; Molecular Devices, Sunnyvale, Calif.). Test compounds were first added to the cells and the resulting changes in fluorescence measured to detect receptor agonistic activity. Five minutes later the cells were challenged with vasopressin to test compounds for their antagonistic activity. Receptor antagonists inhibit the ability of vasopressin to stimulate increases in intracellular fluorescence. IC50's were calculated.

Assay [4] concerns the target T2, human V2 receptor. Nature of the assay: V2 vasopressin receptor functional activity (cAMP accumulation, V2-HEK cells). Details: expressed in transfected cells; host or cells: HEK-293. The format is cell-based. The note with it: block of vasopressin-stimulated cAMP accumulation in V2-HEK cells. As for the experimental part:
The V2 receptor is also a G-protein coupled receptor which when activated induces an increase in cAMP turnover. Antagonism against the V2 receptor is determined by measuring cAMP accumulation in transfected HEK-293 cells expressing the human V-2 receptor (V2-HEK cells). Compounds are tested for their ability to block the stimulatory effects of vasopressin on cAMP accumulation. The cell content of cAMP is measured by radioimmunoassay using NEN flashplates.
In general terms: Changes in cAMP serve as a functional read-out for many G protein-coupled receptors.

T2 sequence (P30518 whole entry): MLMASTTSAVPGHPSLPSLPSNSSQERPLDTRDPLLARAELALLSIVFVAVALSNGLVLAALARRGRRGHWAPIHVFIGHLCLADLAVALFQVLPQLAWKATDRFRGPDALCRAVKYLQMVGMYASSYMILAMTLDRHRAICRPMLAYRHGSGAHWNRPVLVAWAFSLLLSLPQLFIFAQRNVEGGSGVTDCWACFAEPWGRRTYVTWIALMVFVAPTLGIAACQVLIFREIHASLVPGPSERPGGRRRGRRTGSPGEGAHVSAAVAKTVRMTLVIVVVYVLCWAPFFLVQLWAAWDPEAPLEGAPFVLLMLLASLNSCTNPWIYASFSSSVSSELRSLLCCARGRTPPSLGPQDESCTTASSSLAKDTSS
T1 sequence (P37288 whole entry): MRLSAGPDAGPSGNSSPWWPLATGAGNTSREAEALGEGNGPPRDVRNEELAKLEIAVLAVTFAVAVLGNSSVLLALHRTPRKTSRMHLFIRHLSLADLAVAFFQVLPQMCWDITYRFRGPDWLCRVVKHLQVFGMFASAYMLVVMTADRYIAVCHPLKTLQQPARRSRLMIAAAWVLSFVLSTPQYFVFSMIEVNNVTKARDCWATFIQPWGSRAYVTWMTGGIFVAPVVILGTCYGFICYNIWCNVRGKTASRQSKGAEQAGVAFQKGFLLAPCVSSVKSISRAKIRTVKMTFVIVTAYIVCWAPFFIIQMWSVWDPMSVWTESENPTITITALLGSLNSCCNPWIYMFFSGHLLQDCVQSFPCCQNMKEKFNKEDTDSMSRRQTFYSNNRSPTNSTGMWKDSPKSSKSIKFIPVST

As a reminder, the IC50 is the concentration at which inhibition is half-maximal. In general, inhibition refers to the relative decrease from the control value, in per cent. For `CN1CCCC2(CCN(C(=O)c3ccc(NC(=O)c4cc(F)ccc4Cl)cc3)c3ccccc3C2)C1` (centres unmarked) [Compound 8, Benzamide, 2-chloro-N-[4-{(2,3-dihydro-1′-methyl-spiro[4H-1-benzazepine-4,3-piperidin}-1(5H)-yl)carbonyl}phenyl]-5-fluoro], the values for the IC50 at human V1a receptor [1], on human V1a receptor [3] and on human V2 receptor [4] were 12 nM, 0.01 µM and 0.46 µM, respectively. Besides, the inhibition at 0.2 µM at human V2 receptor [2] turned out to be 52%.

Consider `CN1CCCC2(CCN(C(=O)c3ccc(NC(=O)c4ccccc4-c4ccccc4)cc3)c3ccccc3C2)C1` (centres unmarked) [Compound 10, [1,1′-Biphenyl]-2-carboxamide, N-[4-[(2,3-dihydro-1′-methyl-spiro{4H-1-benzazepine-4,3′-piperidin}-1(5H)-yl)carbonyl]phenyl}-], for which the IC50 on human V1a receptor [1] stood at 15 nM; at human V2 receptor [2] it was 29 nM; at human V1a receptor [3] it was 0.08 µM; at human V2 receptor [4] it was 0.064 µM.

As to `O=C(Nc1ccc(C(=O)N2CCC3(CCN(C4CCCC4)C3)Cc3ccccc32)cc1)c1ccccc1-c1ccccc1` (centres unmarked) [Compound 18], the inhibition at 0.2 µM at human V1a receptor [1] is 66%; at human V2 receptor [2], 70%.

Take `COC(=O)CN1CCC2(CCN(C(=O)c3ccc(NC(=O)c4ccccc4-c4ccccc4)cc3)c3ccccc3C2)C1` (centres unmarked) [Compound 22, [1,1′-Biphenyl]-2-carboxamide, N-[4-[(2,3-dihydro-1′-acetic acid-spiro{4H-1-benzazepine-4,3′-pyrrolidin}-1(5H)-yl)carbonyl]phenyl}-, methyl ester]: the inhibition at 0.2 µM at human V1a receptor [1] was found to be 66%. For the same compound, the IC50 at human V2 receptor [2] came to 110 nM; at human V1a receptor [3], 0.4 µM; against human V2 receptor [4], 0.049 µM.

Turning to `CCOC(=O)CN1CCC2(CCN(C(=O)c3ccc(NC(=O)c4ccccc4-c4ccccc4)cc3)c3ccccc3C2)C1` (centres unmarked) [Compound 23, [1,1′-Biphenyl]-2-carboxamide, N-[4-[(2,3-dihydro-1′-acetic acid-spiro{4H-1-benzazepine-4,3′-pyrrolidin}-1(5H)-yl)carbonyl]phenyl}-, ethyl ester], the inhibition at 0.2 µM was 75% on human V1a receptor [1] and 58% at human V2 receptor [2]. Besides, the IC50 amounted to 0.78 µM at human V1a receptor [3] and 0.673 µM at human V2 receptor [4].

With `CCOC(=O)CC(=O)N1CCC2(CCN(C(=O)c3ccc(NC(=O)c4ccccc4-c4ccccc4)cc3)c3ccccc3C2)C1` (centres unmarked) [Compound 25, [1,1′-Biphenyl]-2-carboxamide, N-[4-[(2,3-dihydro-1′-pyruvic acid-spiro{4H-1-benzazepine-4,3′-pyrrolidin}-1(5H)-yl)carbonyl]phenyl}-, ethyl ester], the inhibition at 0.2 µM on human V1a receptor [1] worked out at 35%; on human V2 receptor [2], 77%. Besides, the 50% inhibitory concentration (IC50) against human V2 receptor [4] was determined as 0.306 µM.

On to `O=C(O)CC(=O)N1CCC2(CCN(C(=O)c3ccc(NC(=O)c4ccccc4-c4ccccc4)cc3)c3ccccc3C2)C1` (centres unmarked) [Compound 26], for which the inhibition at 0.2 µM on human V1a receptor [1] turned out to be 23%; on human V2 receptor [2], 83%. The compound further had an IC50 on human V2 receptor [4] of 0.272 µM.

`CC(=O)N1CCC2(CCN(C(=O)c3ccc(NC(=O)c4ccccc4-c4ccccc4)cc3)c3ccccc3C2)C1` (centres unmarked) [Compound 27, [1,1′-Biphenyl]-2-carboxamide, N-[4-[(2,3-dihydro-1′-acetyl-spiro{4H-1-benzazepine-4,3′-pyrrolidin}-1(5H)-yl)carbonyl]phenyl}-]: the inhibition at 0.2 µM at human V1a receptor [1] was 61%; at human V2 receptor [2], 78%. For the same compound, the IC50 at human V1a receptor [3] was 0.21 µM; against human V2 receptor [4], 0.182 µM.

With `CN(C)CC(=O)N1CCC2(CCN(C(=O)c3ccc(NC(=O)c4ccccc4-c4ccccc4)cc3)c3ccccc3C2)C1` (centres unmarked) [Compound 28, [1,1′-Biphenyl]-2-carboxamide, N-[4-[(2,3-dihydro-(1′-(2-(dimethylamino)acetyl))spiro{4H-1-benzazepine-4,3′-pyrrolidin}-1(5H)-yl)carbonyl]phenyl]-;], the concentration for half-maximal inhibition (IC50) at human V1a receptor [1] amounted to 260 nM.
